Tests used:
[1] = test system: Helicoverpa armigera eggs; assay: Helicoverpa egg hatch; conditions: 10 mM; Example 16; exposed 2-10 seconds; day 6 post laying
Procedure: A range of concentrations were made up in water and the eggs placed in the solutions for approximately 2-10 seconds. The eggs which had been laid on cloth were then blotted dry and placed in an incubator at 26° C. for 3-4 days until hatch. Hatch rates were then assessed compared to a water only treated control (FIG. 5).
The compound was dissolved in 100% diethoxyglycol and diluted to a final concentration of 1% in water.
Several hundred Helicoverpa armigera eggs (Tatura×Toowoomba strains) were collected, that had been laid on fine mesh cloth over a 24 hour period.
Batches of Helicoverpa eggs were exposed to a specific inhibitor solution for between 2-10 seconds the excess solution drained by blotting with dry tissue paper. The egg masses were then placed in a humid box at 25 degrees until egg hatch. Control eggs were exposed to absolute methanol as described above. At day 6 post laying the eggs were assessed from the different treatments and the percentage of egg hatch determined relative to the control as shown in Table 12.
Batches of Helicoverpa eggs were then exposed to a specific inhibitor solution for between 2-10 seconds the excess solution drained by blotting with dry tissue paper. The egg masses were then placed in a humid box at 25° C. until egg hatch. Control eggs were exposed to absolute methanol as described above. At day 6 post laying the eggs were assessed from the different treatments and the percentage of egg hatch determined relative to the control as shown in Table 13.

[2] = test system: Plutella xylostella eggs (Waite strain); assay: Plutella xylostella egg hatch (egg dip); conditions: 10 mM; Example 12; dip 2-10 seconds; day 6 post laying
Procedure: Several hundred Plutella xylostella eggs (Waite strain) were collected, that had been laid over a 24 hour period.
The egg masses were then placed in a humid box at 25° C. until egg hatch. Control eggs were exposed to absolute methanol as described above. At day 6 post laying the eggs were assessed from the different treatments and the percentage of egg hatch determined relative to the control as shown in Table 9.
Batches of Plutella eggs that were laid on either fine cloth or parafilm were dipped in a specific inhibitor solution for between 2-10 seconds, the excess solution was drained by blotting with dry tissue paper. The egg masses were then placed in a humid box at 25 degrees until egg hatch. Control eggs were exposed to absolute methanol as described above or not treated. At day 6 post laying the eggs were assessed from the different treatments and the percentage of egg hatch determined relative to the controls as shown in Tables 10 and 11.
The egg masses were then placed in a humid box at 25 degrees until egg hatch. Control eggs were exposed to absolute ethanol as described above. On day 6 post laying the eggs were assessed from the different treatments and the percentage of egg hatch determined relative to the control.

lice eggs = assay: Standard lice egg-hatching assay with commercial head lice products; type: in vivo; conditions: Example 10; products per manufacturer's recommendations, 1,10-phenanthroline 10 mM
Procedure: The ovicidal properties of three major commercial head lice products were evaluated in the standard lice egg-hatching assay. The 3 commercial head lice products were as follows:
These three products were tested according to manufacturer's recommendations. Groups of eggs (24 hours old) were treated with the different products according to manufacturer's recommendations for the appropriate period of time (5-10 minutes) followed by a rinse for 1-2 minutes in 32° C. water. A positive controls (10 mM 1,10-phenanthroline) and two negative controls (no treatment and 20% Methanol) were also incorporated. Post exposure to the different products, the eggs were rinsed with warm water at 32° C. before being blotted dry on tissue paper and placed at 32° C., 70% RH and left to hatch. A second group of eggs, (48 hours old) were treated as previously described and also left to hatch. This process was repeated at 24 hour intervals on head lice eggs up to 120 hours post laying.
The ovicidal properties of two major commercial head lice products were evaluated in the standard lice egg-hatching assay. The 2 commercial head lice products were as follows:
These two products were tested according to manufacturer's recommendations. […]

[3] = test system: proteases in louse egg shell washings (ESW); assay: Gelatine substrate SDS-PAGE of louse egg shell washings incubated with protease inhibitors; type: biochemical, Pediculus humanus humanus
Procedure: Within 12 hours of hatching 50 body lice eggs (Pediculus humanus humanus) were removed from the hair and placed in a 1 mL eppendorf tube. 20 μL of distilled water was added to the unhatched eggs and the preparation incubated for 30 minutes at 32° C. The 20 μL was recovered, freeze dried and stored at −70° C. This sample was referred to as sample 1. A number of other samples were also collected as described. Sample 2 was collected by removing the unhatched louse eggs from four hairs that were approximately 3 cm long, cutting the hair into 0.5 cm lengths, and placing them into a microfuge tube containing 20 μl of distilled water and incubating at 32° C. for 30 minutes. Sample 3 was collected as for sample 2, but the hair was placed in a tube containing 10 mL of 1% sodium hypochlorite for 1 minute followed by five 1 minute washes in 25 mL of distilled water to remove the sodium hypochlorite before being incubated in a microfuge tube containing 20 μl of distilled water and incubated as for Sample 2. Sample 4 was collected from unhatched eggs which were removed from the hair and washed with 1% sodium hypochlorite and incubated in 20 μl of distilled water in the same manner as the hair in Sample 3. Finally, Sample 5 was collected from eggs that were within 24 hrs of hatching which were washed with 1% sodium hypochlorite, then returned to the incubator at 32° C. until they hatched, the empty egg shells collected 0-2 hrs after egg-hatching, placed in a 1 mL microfuge tube containing 20 μl of distilled water and incubated as for Samples 1-4. For all samples 1-5 the 20 μl of fluid was recovered, freeze-dried and stored at −70° C. The washings recovered from these freshly hatched egg shells are referred to as egg-shell-washings (ESWs). In order to look for the presence of proteases present in these different samples, the freeze-dried samples were resuspended in 15 μL of non-reducing SDS sample buffer, centrifuged at 10,000 g for 2 minutes and the entire 15 μL loaded on to 10% gelatine substrate SDS-PAGE gels. Gels were run at 4° C. for 10 minutes at 10 mA followed by a further 25 minutes at 15 mA per gel. They were then incubated for 2×20 minutes in a 2.5% Triton-X 100 solution followed by a three hour incubation in 0.1M Tris/HCl containing 1 mM CaCl2 pH 8.0. Activity was detected as clear areas on the gel the result of protease activity degrading the gelatine within the gel.
Protease activity in the ESWs from louse eggs was also examined using two-dimensional gel electrophoresis. It was necessary to collect large numbers of freshly hatched egg shells. Following egglaying onto pieces of cloth, adult female lice were removed and the cloth with the eggs washed with 1% sodium hypochlorite as for collection of ESWs. The eggs were then returned to the incubator and permitted to hatch. Typically 100 to 500 hatched egg shells were collected (0-2 hours post hatching), placed in a microfuge tube containing 200 μl of distilled water, incubated and sample treated as described above. For analysis, ESWs were resuspended in rehydration buffer (8 M Urea, 2% 3-[(3-cholamidopropyl) dimethylammonio]-1-propanesulfonate 2% Immobilised pH gradient buffer 3-10 (Amersham Phamacia Biotech, Uppsala, Sweden)) and used to rehydrate 7 cm Immobiline Dry strips pH 3-10 (Amersham Bioscience) overnight. Strips were transferred to the Multiphor II (Pharmacia, Sweden) apparatus, electrophoresed in the first dimension at 200 V for 1 min, increasing to 3,500 V over the next 90 min followed by 65 min at 3,500 V, equilibrated (6 M urea, 30% glycerol, 50 mM Tris pH 8.8 and 2% SDS) and then run on a 10% SDS-PAGE gel containing 0.1% gelatin for the second dimension. The gel was then run and developed as previously described.
10% SDS-PAGE gelatine substrate gels were loaded with freeze dried egg shell washings from 100 lice eggs that had been resuspended in 50 μL of non-reducing sample buffer with samples run at 10 μL per lane. […]

[4] = test system: Lice (L) / Plutella (P) eggs; type: in vivo; conditions: 10 mM; Lice/Plutella: L P
Procedure: Log LD50 is obtained from the observed percentage ovicidal activity by conversion using a modified logit transformation. The observed percentage ovicidal activity values were transformed using the equation:
The additional 5% was used to allow a number to be calculated when 0% and 100% activity was observed. The BA is a crude correction to the log of the concentration at which the compounds were tested. Correlation between BA values and LD50 allows the calculation of Log LD50. […] A number of metal chelating agents with potential for inhibiting the remodelling events associated with thin membrane egg hatching in lice were analysed by comparing their percentage ovicidal activity in lice at different concentrations, their logit calculated pLD50, Pref pLD50, Activity class, clogP and molar refractivity were determined.

head lice egg = assay: Head lice egg hatching, time course; type: in vivo, Pediculus humanus capitus; conditions: 10 mM, 10 minutes
Procedure: Tests were carried out to determine if metal chelating agent and metalloprotease inhibitor 1,10-phenanthroline could inhibit head lice egg (Pediculus humanus capitus) hatching as opposed to body lice. Head lice eggs were obtained by placing groups of both 1-2 adult male and 6-8 adult female head lice in separate wells in a 24 well petri dish containing cotton cloth. The petri dish was transferred to a humid incubator at 32° C., 70% RH for 12 hours to permit the female lice to lay their eggs. After 12 hours, all adult lice were removed from the petri dish wells and a series of time-course experiments conducted. A group of eggs (24 hr old) was treated for 10 minutes with 200 μL of a 10 mM solution of 1,10-phenanthroline. A control (ie no inhibitor treatment) group of eggs was also included. The eggs were removed from the inhibitor, blotted dry on tissue paper, placed at 32° C., 70% RH and left to hatch. A second group of eggs, (48 hours old) were treated as previously described and also left to hatch. This process was repeated at 24 hour intervals on head lice eggs up to 120 hours post laying.

[5] = test system: body lice eggs (clothing lice); assay: In vitro lice egg hatching bioassay (standard lice assay, time course)
Procedure: Male and female clothing lice were fed on a rabbit as previously described. Female and male adult lice in a ratio of 3:1 were then transferred to a clean petri dish containing nylon cloth approximately 3×3 cm^2 and left for 12 hours at 32° C. During this period the female lice laid their eggs and attached them to the woven cloth. All lice would then be removed and the eggs permitted to incubate for the following 5 days. On Day 6 the cloth containing the eggs would be placed for 1 minute in a 1% sodium hypochlorite solution and then washed extensively. The eggs would then progress through to their final stages of development and hatch.
Lice eggs were laid onto cloth as described above. Five days post laying the cloth containing lice eggs was removed and immersed in a 1% sodium hypochlorite solution before being washed extensively in distilled water and blotted dry on tissue paper. Lice eggs were counted under a dissecting microscope and the cloth cut into batches of between 10-30 eggs with 3-5 replicates used per treatment. The cloth containing lice eggs was then immersed in a protease inhibitor solution for a period of 10 minutes, placed on tissue paper for 1 minute to dry before being transferred to a clean petri dish and incubated until hatching. […] Specifically a stock solution was prepared as follows: 1,10-phenanthroline (200 mM in methanol). In addition, the equivalent levels of the solvent were added to the non-inhibitor containing controls eggs to test for any buffer alone effects. Percentage hatch inhibition was calculated as the percentage reduction in egg hatch compared to the untreated control. The untreated control was assigned a percentage hatch of 100%.
A series of time-course experiments was conducted as a means of assessing inhibitors of lice egg hatching. […]
An experiment was undertaken to determine whether washing of the eggs would effect the inhibitory activity of 1,10-phenanthroline (Table 3). […] Percentage hatch inhibition was calculated as the percentage reduction in egg hatch compared to the untreated control. […]

c1cnc2c(c1)ccc1cccnc12 [1,10-phenanthroline]
% Inhibition of egg hatch relative to control [1]: able to inhibit
% Inhibition of egg hatch relative to control [2]: significantly inhibit
ovicidal activity across the different stages of lice egg hatching (lice eggs): highly effective
protease activity of egg shell washings, two dimensional gel ([3]; gel incubated with 10 mM 1,10-phenanthroline): general reduction in protease activity in the 25-30 kDa region and a clear reduction in the proteases present around the 50 kDa region and above 75 kDa
protease activity of egg shell washings compared to untreated controls ([3]; gelatine SDS-PAGE strips, EDTA 10 mM, 1,10-phenanthroline 10 mM, PMSF 5 mM, E-64 10 μM, Pepstatin 5 μM, 3 hrs at 37° C.): reduction in protease activity
Activity class 0 = inactive 1 = low 2 = med 3 = high [4]: 1 (a pLD50 value between 2 and 3 is considered weakly active (Class 1))
egg hatching in head lice (head lice egg): significantly inhibit
inhibition of lice egg hatching following washing of eggs in water ([5]; 10 mM, 10 minutes, washed 1 minute): still highly efficacious
inhibition of egg hatching in lice ([5]; 10 mM, eggs treated 5 days post laying, 10 minutes): significantly inhibited
egg hatching in lice ([5]; 2.5-10 mM, all time points examined): significantly inhibit

— US20100204277A1, “Compositions and Methods for Controlling Infestation” (HATCHTECH PTY LTD., priority 2007, published 2010)
